Tests used:
[1] = target: T1, BCRP (Homo sapiens, UniProt Q9UNQ0); assay: BCRP inhibition, flow cytometric pheophorbide A assay in MDCKII-BCRP cells; format: in vitro ADME
T1 construct: expressed in transfected cells; host or cells: MDCKII-BCRP (gift of A. H. Schinkel and P. Borst)
Excerpt: MDCKII cells. The transporter over-expressing cell lines MDCKII-MDR1 [5], MDCKII-MRP2 [6], and MDCKII-BCRP [7] and the corresponding parental cell line MDCKII were used to assess the sensitivity of cells with and without P-gp, multidrug resistance-associated protein 2 (MRP2/ABCC2), or BCRP expression. Moreover, MDCKII-BCRP cells were used to assess BCRP inhibition by venetoclax. MDCKII over-expressing cell lines were kindly provided by A. H. Schinkel and P. Borst (Amsterdam, The Netherlands). The parental cell line MDCKII (available at ATCC, Manassas, VA, USA) was used as a control. The cells were cultured in Dulbecco’s Modified Eagle’s Medium (DMEM) containing 10% FCS, 2 mM of glutamine, 100 U/mL of penicillin, and 100 µg/mL of streptomycin sulfate.
Flow cytometric BCRP inhibition assays were conducted in control (MDCKII) and BCRP over-expressing cells (MDCKII-BCRP) using PhA as a fluorescent BCRP substrate as described and validated previously. Inhibition of BCRP leads to an increase in intracellular PhA concentrations. Each experiment was performed in triplicate. Venetoclax was tested from 0.1 up to 100 µM.

[2] = target: T2, CYP2C19 (Homo sapiens, UniProt P33261); assay: CYP2C19 inhibition, CYP2C19/CEC High Throughput Inhibitor Screening Kit; format: in vitro ADME; details: recombinant CYP, fluorogenic substrate
T2 construct: purchased Becton Dickinson Biosciences (Heidelberg, Germany)
Procedure: Inhibition studies for CYP2B6, CYP2D6, CYP2C19 and CYP3A4 were performed with the CYP2B6/EFC, CYP2D6/AMMC, the CYP2C19/CEC, and the CYP3A4/BFC High Throughput Inhibitor Screening Kit according to the manufacturer’s instructions. The kits contain the respective recombinant CYP and fluorogenic substrates, which are blocked dyes emitting a fluorescence signal when cleaved by the enzyme. For testing CYP1A2 inhibition, the P450-Glo CYP1A2 Screening System was used according to the manufacturer’s instructions. The kit contains the luminogenic CYP1A2 substrate luciferin-ME, which is converted by CYP1A2 into luciferin-generating light when incubated with the luciferin detection reagent of the kit. Eight concentrations of venetoclax in duplicates (0.009–20 µM) were tested in the fluorescence assays, and eight concentrations in triplicate (0.05–100 µM) were tested for the luminogenic assay. Each experiment was conducted in triplicate.

[3] = test system: LS180 cells; assay: Growth inhibition (proliferation) assay in LS180 cells; format: cell-based; details: Homo sapiens, crystal violet staining
Procedure: (§1) LS180 cells. The human colon adenocarcinoma cell line LS180 (available at ATCC, Manassas, VA, USA) is one of the standard models for investigating pregnane X receptor (PXR) and aryl hydrocarbon receptor (AhR) mediated induction and was thus used for induction experiments. Cells were cultured under standard cell culture conditions with DMEM supplemented with 10% FCS, 2 mM of glutamine, 100 U/mL of penicillin, 100 µg/mL of streptomycin sulfate, and 0.1 mM of nonessential amino acids.
Growth inhibition assays in LS180 cells were conducted to determine suitable maximum concentrations for the induction assay without profound antiproliferative effects. Proliferation was quantified by crystal violet staining of the surviving cells as described previously. Each experiment was performed at least in triplicate with n = 8 wells for each concentration (0.1–100 µM). The IC20 for proliferation inhibition by venetoclax was 8.4 ± 1.0 µM; thus, the maximum concentration for the induction assay was set to 10 µM, ensuring that about 80% of the cells will survive.

[4] = Growth inhibition assay in L-MDR1 cells; format: cell-based, porcine; details: pig, L-MDR1 cells (LLC-PK1 over-expressing human ABCB1/P-gp)
Procedure: LLC-PK1 and L-MDR1 cells. […] L-MDR1 cells were kindly provided by A. H. Schinkel (The Netherlands Cancer Institute, Division of Experimental Therapy, Amsterdam, The Netherlands). The cells were cultured under standard cell culture conditions with medium M199 supplemented with 10% FCS, 2 mM of glutamine, 100 U/mL of penicillin, and 100 µg/mL of streptomycin sulfate. To maintain P-gp/ABCB1 expression the culture medium for L-MDR1 was supplemented with 0.64 µM of vincristine. One day before seeding the cells for the growth inhibition assay, both cell lines were fed with a vincristine-free culture medium. Growth inhibition assays in LS180 cells were conducted to determine suitable maximum concentrations for the induction assay without profound antiproliferative effects. Proliferation was quantified by crystal violet staining of the surviving cells as described previously. […] Growth inhibition assays in MDCKII, and their MRP2 or BCRP over-expressing counterparts ([…], MDCKII-BCRP) and in LLC-PK1 and the corresponding P-gp over-expressing cell line L-MDR1 were conducted to evaluate whether venetoclax sustains its efficacy in MDR cell lines.

[5] = test system: CYP1A1; assay: Induction assay, CYP1A1 mRNA by real-time RT-PCR in LS180 cells; format: in vitro ADME, human; details: four days, 10 µM
Procedure: as §1
(§2) For the induction experiments, LS180 cells were seeded in 75 cm^2 culturing flasks and incubated for three days. […]
(§3) RNA was isolated using the GenElute™ Mammalian Total RNA Miniprep Kit, and cDNA was synthesized with the RevertAid™ H Minus First Strand cDNA Synthesis Kit according to the manufacturer's instructions. mRNA expression was quantified by real-time RT-PCR with the LightCycler® 480 (Roche Applied Science, Mannheim, Germany) as described previously. […] Data were evaluated via calibrator-normalized relative quantification with efficiency correction using the LightCycler® 480 software version 1.5 (Roche Applied Science, Mannheim, Germany). […] The following target genes were quantified: CYP1A1, CYP1A2, CYP3A4, ABCB1, ABCC2, ABCG2, SLCO1B1 (coding for OATP1B1), UDP-glucuronosyltransferase 1A3 (UGT1A3), and UGT1A9.

[6] = test system: CYP1A2; assay: Induction assay, CYP1A2 mRNA by real-time RT-PCR in LS180 cells; format: in vitro ADME, human; details: four days, 10 µM
Procedure: as §1, §2, §3

[7] = test system: ABCG2; assay: Induction assay, ABCG2 mRNA by real-time RT-PCR in LS180 cells; format: in vitro ADME, human; details: four days, 0.01–10 µM
Procedure: as §1, §2, §3

[8] = test system: Bcl-xL; set-up: method as in PMID 26639348, PMID 23291630; details: cited from earlier work

T2 sequence (P33261 whole entry): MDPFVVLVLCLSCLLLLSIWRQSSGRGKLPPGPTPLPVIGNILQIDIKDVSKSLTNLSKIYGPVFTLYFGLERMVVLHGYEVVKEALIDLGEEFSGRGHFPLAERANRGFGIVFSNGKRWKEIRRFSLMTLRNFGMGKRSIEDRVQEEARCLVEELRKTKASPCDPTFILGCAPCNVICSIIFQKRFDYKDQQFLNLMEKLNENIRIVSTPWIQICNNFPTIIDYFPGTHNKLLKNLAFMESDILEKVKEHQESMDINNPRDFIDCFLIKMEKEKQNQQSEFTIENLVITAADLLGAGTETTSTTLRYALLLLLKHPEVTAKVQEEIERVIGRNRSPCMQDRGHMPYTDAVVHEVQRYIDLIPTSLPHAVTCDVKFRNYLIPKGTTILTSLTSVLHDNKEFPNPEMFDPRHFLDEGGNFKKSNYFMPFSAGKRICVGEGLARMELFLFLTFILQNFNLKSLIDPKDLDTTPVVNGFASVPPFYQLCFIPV
T1 sequence (Q9UNQ0 whole entry): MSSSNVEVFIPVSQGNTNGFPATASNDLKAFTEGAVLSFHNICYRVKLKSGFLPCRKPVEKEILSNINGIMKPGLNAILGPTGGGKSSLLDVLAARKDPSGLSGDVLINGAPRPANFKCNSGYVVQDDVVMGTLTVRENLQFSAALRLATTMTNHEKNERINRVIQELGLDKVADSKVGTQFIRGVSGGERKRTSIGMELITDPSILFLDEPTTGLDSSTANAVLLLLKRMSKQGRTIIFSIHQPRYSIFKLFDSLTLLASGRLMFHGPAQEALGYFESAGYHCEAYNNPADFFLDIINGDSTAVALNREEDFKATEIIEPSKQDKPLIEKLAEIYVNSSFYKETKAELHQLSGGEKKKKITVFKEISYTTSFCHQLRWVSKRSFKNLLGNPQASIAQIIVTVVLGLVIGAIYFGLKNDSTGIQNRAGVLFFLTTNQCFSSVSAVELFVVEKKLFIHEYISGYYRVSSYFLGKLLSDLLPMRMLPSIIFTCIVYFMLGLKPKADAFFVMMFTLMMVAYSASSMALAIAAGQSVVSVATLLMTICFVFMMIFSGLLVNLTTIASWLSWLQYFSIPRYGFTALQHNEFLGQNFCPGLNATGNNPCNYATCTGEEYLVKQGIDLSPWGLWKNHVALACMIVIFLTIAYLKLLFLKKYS

Structure (SMILES): CC1(C)CCC(CN2CCN(c3ccc(C(=O)NS(=O)(=O)c4ccc(NCC5CCOCC5)c([N+](=O)[O-])c4)c(Oc4cnc5[nH]ccc5c4)c3)CC2)=C(c2ccc(Cl)cc2)C1 [Venetoclax]
- IC50 [1]: 19.6 ± 7.3 µM
- IC50 [2]: 14.2 ± 1 µM
- IC20 [3]: 8.4 ± 1 µM
- IC50 ([4]; with LY335979 (P-gp inhibitor), L-MDR1 + LY335979 (1 µM)): 25.7 ± 4.1 µM
- IC50 ([4]; L-MDR1, P-gp over-expressing): 53.1 ± 4.1 µM
- mRNA expression of CYP1A1 [5]: induced
- mRNA expression of CYP1A2 [6]: induced
- mRNA expression of ABCG2 [7]: unchanged
- Bcl-xL inhibition [8]: does not inhibit
